Reference: patent publication US12295992B2, “Use of ALDH1A and agonist, catalyst and inhibitor thereof” (SHANGHAI INSTITUTES FOR BIOLOGICAL SCIENCES, CHINESE …, priority 2017, dated 2025)

Key:
wild-type C57BL/6 mice [1] = test: Open field experiment in wild-type mice; type: in vivo; conditions: DSF 0.1 or 0.3 mg/g vs solvent
Method: (§1) Four-week-aged mice were given a low dose (0.1 mg/g) or a high dose (0.3 mg/g) of DSF (Sigma, dissolved in olive oil) every two days for 6 weeks. The control group was only given the solvent olive oil (Aladdin). The body weight of the mice was weighed weekly. After 6 weeks of gastric administration, the test of mouse behavior was started. The brains of the control and DSF mice were dissected and taken. After freezing with liquid nitrogen, the brain tissue was homogenized, and ATRA was quantified by the HPLC-MS/MS method as described hereinafter.
Mice were randomized into groups and placed in an open field instrument (Med Associates) for 30 minutes. The Ethovision automatic recording software (Noldus) was used to record the time spent by the mouse in the central region (⅓ to ⅔ of length on each side of the region) and to calculate the ratio of the distance walked in the central region to the total distance.

[2] = system: ATRA synthesis in the mouse brain; test: HPLC-MS/MS quantification of ATRA in mouse brain tissue; type: in vivo, mice; conditions: six weeks
Method: Four-week-aged mice were given a low dose (0.1 mg/g) or a high dose (0.3 mg/g) of DSF (Sigma, dissolved in olive oil) every two days for 6 weeks. The control group was only given the solvent olive oil (Aladdin). The body weight of the mice was weighed weekly. After 6 weeks of gastric administration, the test of mouse behavior was started. The brains of the control and DSF mice were dissected and taken. After freezing with liquid nitrogen, the brain tissue was homogenized, and ATRA was quantified by the HPLC-MS/MS method as described hereinafter. Sample preparation, retinoid extraction and subsequent HPLC-MS/MS analysis were performed according to the previously reported procedures (Kane et al., 2010). The frozen brains of mice were homogenized on ice with 2 mL of 0.9% saline under red light condition. 13-cis-retinoic acid-d5 (20 ng/mL, TRC) was added into the tissue homogenate as an internal reference. […] The samples were analyzed by HPLC on a 2.1×100 mm Supelcosil ABZ+PLUS column (3 urn, Sigma) column. […] The instrumentation was an AB Sciex 4000 QTRAP LC-MS/MS system, and the ATRA component was quantified in the APCI cation mode, and the ATRA content in each sample was corrected using a standard ATRA curve.

wild-type C57BL/6 mice [3] = test: Self-grooming experiment in wild-type mice; type: in vivo; conditions: six weeks, within 10 minutes
Method: as §1, with “hereinafter. The mice used in the self-grooming experiment were placed in a cage box filled with a filler having a thickness of about 0.5-1 cm for 10 minutes in advance for accommodation. Then, within 10 minutes, the time of self-grooming in mice was recorded by a double-blind experimenter through a stopwatch.” for “hereinafter.”

[4] = Body weight of mice during DSF administration; type: in vivo; conditions: DSF 0.1 or 0.3 mg/g, weighed weekly, six weeks
Method: as §1

wild-type C57BL/6 mice [5] = test: Elevated cross maze experiment in wild-type mice; type: in vivo; conditions: DSF 0.1 or 0.3 mg/g vs solvent
Method: as §1
Mice were placed in a closed arm of an elevated cross maze (Med Associates) and recording was started for 5 minutes. Image recording was performed using a camera hanged in the air, and the number of times that the mouse entered into the open arm and the closed arm within 5 minutes was recorded and analyzed using ANY-maze software (Stoelting).

wild-type C57BL/6 mice [6] = test: Three-chamber social experiment in wild-type mice; type: in vivo; conditions: DSF 0.3 mg/g
Method: Four-week-aged mice were given a low dose (0.1 mg/g) or a high dose (0.3 mg/g) of DSF (Sigma, dissolved in olive oil) every two days for 6 weeks. The control group was only given the solvent olive oil (Aladdin). The body weight of the mice was weighed weekly. After 6 weeks of gastric administration, the test of mouse behavior was started. The brains of the control and DSF mice were dissected and taken. After freezing with liquid nitrogen, the brain tissue was homogenized, and ATRA was quantified by the HPLC-MS/MS method as described hereinafter. A three-chamber social experiment was performed according to previously reported procedures (Sztainberg et al., 2015). Briefly, a transparent acrylic box for social experiment was divided into three chambers of uniform size with removable gates mounted on the partition board. An inverted iron mesh cup was placed in each of the left and right chambers. Two days before the experiment, C57BL/6 mice, which were from different family and whose age was matched with the test mice, were placed in two cups as strange mice for 1 hour each day for accommodation. Test mice were randomized into groups and accommodated to the test chamber for 1 hour before the test started. Each test mouse was placed in the center chamber for 10 minutes for self-exploration, and the chamber door was closed. In the first stage, a strange mouse was randomly placed in the left or right cup (avoiding positional bias), and the inanimate article was placed in the cup on the other side. […] In the second stage, the test mice were kept in the chamber of the strange mouse for 5 minutes, and then another strange mouse was placed in the cup in which the article was previously placed.

wild-type C57BL/6 mice [7] = test: Rotating rod experiment in wild-type mice; type: in vivo; conditions: DSF 0.1 or 0.3 mg/g
Method: as §1
After mice were randomized into groups, the motor coordination ability of the mice was recorded using a Rotamex rotarod instrument (Columnbus Instruments). On the same day, the test mice were tested 3 times, each experiment was lasted 5 minutes, and the rotating rod was accelerated from 4 revolutions […]. There were at least 30 minutes between two experiments. The time before the test mice dropped off the rod was automatically recorded by an infrared detection system, and the results of the last test were finally compared.

- distance of the movement in the open field (wild-type C57BL/6 mice [1]): no difference
- time staying in the middle area of the open field (wild-type C57BL/6 mice [1]): no difference
- number of times entering the open arm as a percentage of all arm entry (wild-type C57BL/6 mice [5]): no significant difference
- sport ability (rotating rod) (wild-type C57BL/6 mice [7]): did not affect the sport ability
Structure (SMILES): CCN(CC)C(=S)SSC(=S)N(CC)CC [DSF, disulfiram]
- decrease of ATRA level in brain tissue vs solvent group ([2]; DSF 0.1 mg/g oral every other day): 30%
- decrease of ATRA level in brain tissue vs solvent group ([2]; DSF 0.3 mg/g oral every other day): 60%
- time of self-grooming (wild-type C57BL/6 mice [3]; DSF 0.1 mg/g): 30 s
- time of self-grooming (wild-type C57BL/6 mice [3]; DSF 0.3 mg/g): 42 s
- body weight between the groups [4]: no significant difference
- increase of time spent in the chamber of familiar social mouse vs solvent group (wild-type C57BL/6 mice [6]): 50%
- reduction of time staying in the chamber of strange social mouse vs solvent group (wild-type C57BL/6 mice [6]): 30%
